Patent publication US11167014B2, “Solid glp-1 derivative compositions for oral administration” (Novo Nordisk A/S, priority 2017, dated 2021)
Several values for one entry are separate records, joined by “and”; a condition that tells them apart may be missing. Equal entries are not always repeated.

How the values were obtained:
NCI-N87 cell monolayers = experiment: Assay (I): epithelial cell monolayer permeability (transepithelial transport, Papp) and TEER, NCI-N87
Procedure: N87 cells were seeded onto tissue culture treated polyester filters in 12-well Corning Transwell plates (1.13 cm^2, 0.4 μm pore size) at a density of 10^5 cells/well.
(§1) Cell monolayers were grown in an atmosphere of 5% CO2-95% O2 at 37° C., replacing growth media every other day. The experiment was performed on day 14-16 after cell seeding.
The amount of test compound transported from the donor chamber (apical side) to the receiver chamber (basolateral side) was measured as described in [1] for Caco-2 monolayers and in [2] for NCl-N87 cell monolayers, in an atmosphere of 5% CO2-95% O2 at 37° C. on a shaking plate (30 rpm). Before the experiment, cell monolayers were equilibrated for 60 min with transport buffer on both sides of the epithelium. The transport buffer consisted of Hank's balanced saline solution containing 0.1% Ovalbumin (w/v), 0.005% Tween20 (w/w) and 10 mM HEPES, adjusted to pH 7.4. The transport of [^3H]mannitol (PerkinElmer), was measured to verify the integrity of the epithelium.
(§2) Translocation of a given compound across cell layers is expressed as the apparent permeability (Papp), given by:
(§3) [formula] where dQ/dt is the steady-state flux across the cell layer (pmol/s), A is the surface area (1.12 cm^2), and C0 is the initial sample concentration.
Before and after the experiment the transepithelial electrical resistance (TEER) of the cell monolayers was monitored. After experiments, cells were washed twice with buffer and replenished with medium for 24 h TEER recovery to ensure that the cell monolayers were viable and the enhancer effects were transient. The TEER was measured with EVOM™ Epithelial Voltohmmeter connected to Chopsticks.

Caco-2 cell monolayers = experiment: Assay (I): epithelial cell monolayer permeability (transepithelial transport, Papp) and TEER, Caco-2
Procedure: Caco-2 cells were seeded in culturing flasks and passaged in Dulbecco's Modified Eagle' (DMEM) medium supplemented with 10% fetal bovine serum, 1% penicillin/streptomycin (100 U/ml and 100 μg/ml, respectively), 1% L-glutamine and 1% nonessential amino acids. Caco-2 cells were seeded onto tissue culture treated polycarbonate filters in 12-well Corning Transwell plates (1.13 cm^2, 0.4 μm pore size) at a density of 10^5 cells/well.
as §1
Before the experiment, cell monolayers were equilibrated for 60 min with transport buffer on both sides of the epithelium. The transport buffer consisted of Hank's balanced saline solution containing 0.1% Ovalbumin (w/v), 0.005% Tween20 (w/w) and 10 mM HEPES, adjusted to pH 7.4. The transport of [^3H]mannitol (PerkinElmer), was measured to verify the integrity of the epithelium.
as §2, §3
Before and after the experiment the transepithelial electrical resistance (TEER) of the cell monolayers was monitored. After experiments, cells were washed twice with buffer and replenished with medium for 24 h TEER recovery to ensure that the cell monolayers were viable and the enhancer effects were transient. The TEER was measured with EVOM™ Epithelial Voltohmmeter connected to Chopsticks. For Caco-2 monolayers the starting TEER was typically around 1000 Ω·cm^2 and for N87 monolayers it was around 1600 Ω·cm^2.

[1] = NCI-N87, experiment of Table 3 (semaglutide)
[2] = NCI-N87, experiment of Table 4 (FD4)
[3] = Caco-2, experiment of Table 1 (semaglutide)
[4] = Caco-2, experiment of Table 2 (Compound B)
[5] = Caco-2, experiment of Table 5 (FD4)
[6] = Caco-2, experiments of Tables 9-10 (semaglutide, FD4)

Structure (SMILES) | transient decrease in cell monolayer TEER down to % of starting values (NCI-N87 cell monolayers; [1]) | transient decrease in cell monolayer TEER down to % of starting values (NCI-N87 cell monolayers; [2]) | transient decrease in cell monolayer TEER down to % of starting values (Caco-2 cell monolayers; [3]) | transient decrease in cell monolayer TEER down to % of starting values (Caco-2 cell monolayers; [4]) | transient decrease in cell monolayer TEER down to % of starting values (Caco-2 cell monolayers; [5]) | transient decrease in cell monolayer TEER down to % of starting values (Caco-2 cell monolayers; [6]) | dapagliflozin concentration for which non-recovering TEER was observed (NCI-N87 cell monolayers; NCI-N87, 24 h in fresh medium) | effect alone on Compound B permeability (Caco-2 cell monolayers; 0.5-2.0 mM dapagliflozin, Caco-2 cell monolayers) | dapagliflozin concentration for which non-recovering TEER was observed (Caco-2 cell monolayers; Caco-2, 24 h in fresh medium)
O=C(O)CCCCCCCNC(=O)c1ccccc1O [SNAC, sodium N-(8-(2-hydroxybenzoyl)amino)caprylate] | ~20 % of starting values | ~25 % of starting values | ~25 % of starting values | ~25 % of starting values | ~35 % of starting values | ~35 % of starting values | – | – | –
CCOc1ccc(Cc2cc([C@@H]3O[C@H](CO)[C@@H](O)[C@H](O)[C@H]3O)ccc2Cl)cc1 [dapagliflozin] | ~20 % of starting values | ~25 % of starting values | ~25 % of starting values | ~25 % of starting values | ~35 % of starting values | – | > 2.6 mM | negligible effect | > 2.7 mM and 3 mM
OC[C@H]1O[C@@H](c2ccc(Cl)c(Cc3ccc(O[C@H]4CCOC4)cc3)c2)[C@H](O)[C@@H](O)[C@@H]1O [empagliflozin] | – | – | – | – | – | ~35 % of starting values | – | – | –
